Data published in US9884832B2 (priority 2011, dated 2018).
Like-named read-outs stand apart in the source and are kept apart here.

Target: AM2 S31N (serine→asparagine mutation at residue 31 in the M2 protein) (Influenza A virus, UniProt P0DOF5, S31N)
Type: cell-based, influenza virus A/Udorn/72

| SMILES | S31N OOcyte Inhibition at 100 uM (%) | S31N OOcyte Inhibition at 100 uM (%) (pH 5.5) |
| --- | --- | --- |
| COc1ccc(-c2cc(CNC34CC5CC(CC(C5)C3)C4)on2)cc1 [Example 122a, N-((3-(4-methoxyphenyl)isoxazol-5-yl)methyl)adamantan-1-amine] | A (key: (A)=31-95%; (B)=0-30%) | – |
| Cc1oc(-c2cccs2)nc1CNC12CC3CC(CC(C3)C1)C2 [Example 145a, N-((5-methyl-2-(thiophen-2-yl)oxazol-4-yl)methyl)adamantan-1-amine] | B (key: (A)=31-95%; (B)=0-30%) | – |
| CSc1ccccc1-c1cnc(CNC23CC4CC(CC(C4)C2)C3)s1 [Example 76b, Adamantan-1-yl-[5-(2-methylsulfanyl-phenyl)-thiazol-2-ylmethyl]-amine] | – | A (key: (A)=31-95%; (B)=0-30%) |
| Fc1cccc(F)c1-c1cc(CNC23CC4CC(CC(C4)C2)C3)no1 [Example 38b, N-((5-(2,6-difluorophenyl)isoxazol-3-yl)methyl)adamantan-1-amine] | – | A (key: (A)=31-95%; (B)=0-30%) |
| Oc1cc(-c2ccco2)ccc1CNC12CC3CC(CC(C3)C1)C2 [Example 7b, 2-((-Adamantan-1-ylamino)methyl)-5-(furan-2-yl)phenol] | – | A (key: (A)=31-95%; (B)=0-30%) |
| Nc1ncc(CNC23CC4CC(CC(C4)C2)C3)s1 [Example 19b] | – | B (key: (A)=31-95%; (B)=0-30%) |
| c1ccc(-c2noc(CNC34CC5CC(CC(C5)C3)C4)n2)cc1 [Example 123a, N-((3-phenyl-1,2,4-oxadiazol-5-yl)methyl)adamantan-1-amine] | A (key: (A)=31-95%; (B)=0-30%) | – |
| Cc1nnc(CNC23CC4CC(CC(C4)C2)C3)o1 [Example 17b, N-((5-methyl-1,3,4-oxadiazol-2-yl)methyl)adamantan-1-amine] | – | A (key: (A)=31-95%; (B)=0-30%) |
| c1ccc(C2=NOC(CNC34CC5CC(CC(C5)C3)C4)C2)cc1 (centres unmarked) [Example 167a, N-((3-phenyl-4,5-dihydroisoxazol-5-yl)methyl)adamantan-1-amine] | A (key: (A)=31-95%; (B)=0-30%) | – |
| CC(C)c1csc(CNC23CC4CC(CC(C4)C2)C3)n1 [Example 84a, N-((4-isopropylthiazol-2-yl)methyl)adamantan-1-amine] | B (key: (A)=31-95%; (B)=0-30%) | – |
| C(NC12CC3CC(CC(C3)C1)C2)c1noc(C2CC2)n1 [Example 166a] | A (key: (A)=31-95%; (B)=0-30%) | – |
| c1csc(C2=NOC(CNC34CC5CC(CC(C5)C3)C4)C2)c1 (centres unmarked) [Example 168a, N-((3-(thiophen-2-yl)-4,5-dihydroisoxazol-5-yl)methyl)adamantan-1-amine] | A (key: (A)=31-95%; (B)=0-30%) | – |
| c1cc2cn[nH]c2cc1CNC12CC3CC(CC(C3)C1)C2 [Example 43a, N-((1H-indazol-6-yl)methyl)adamantan-1-amine] | B (key: (A)=31-95%; (B)=0-30%) | – |
| c1csc(-c2cc(CNC34CC5CC(CC(C5)C3)C4)on2)c1 [Example 149a, N-((3-(thiophen-2-yl)isoxazol-5-yl)methyl)adamantan-1-amine] | A (key: (A)=31-95%; (B)=0-30%) | – |
| c1nc(N2CCCC2)ncc1CNC12CC3CC(CC(C3)C1)C2 [Example 54b, N-((2-(pyrrolidin-1-yl)pyrimidin-5-yl)methyl)adamantan-1-amine] | – | A (key: (A)=31-95%; (B)=0-30%) |
| FC(F)(F)c1nnc(CNC23CC4CC(CC(C4)C2)C3)o1 [Example 14b, N-((5-(trifluoromethyl)-1,3,4-oxadiazol-2-yl)methyl)adamantan-1-amine] | – | A (key: (A)=31-95%; (B)=0-30%) |
| c1nc(CNC23CC4CC(CC(C4)C2)C3)sc1C1CC1 [Example 65b, Adamantan-1-yl-(5-cyclopropyl-thiazol-2-ylmethyl)-amine] | – | A (key: (A)=31-95%; (B)=0-30%) |
| Clc1cccc2cc(CNC34CC5CC(CC(C5)C3)C4)sc12 [Example 183a, Adamantan-1-yl-(7-chloro-benzo[b]thiophen-2-ylmethyl)-amine] | B (key: (A)=31-95%; (B)=0-30%) | – |
| C[Si](C)(C)c1ccc(CNC23CC4CC(CC(O)(C4)C2)C3)cc1 [Example 193a, (1s,3r,5R,7S)-3-((4-(trimethylsilyl)benzyl)amino)adamantan-1-ol] | A (key: (A)=31-95%; (B)=0-30%) | – |
| OC12CC3CC(C1)CC(NCc1cc(-c4ccccc4)on1)(C3)C2 [Example 194a, (1s,3r,5R,7S)-3-(((5-phenylisoxazol-3-yl)methyl)amino)adamantan-1-ol] | A (key: (A)=31-95%; (B)=0-30%) | – |
| CSC(C)(C)Cc1cc(CNC23CC4CC(CC(C4)C2)C3)no1 [Example 46b, N-((5-(2-methyl-2-(methylthio)propyl)isoxazol-3-yl)methyl)adamantan-1-amine] | – | A (key: (A)=31-95%; (B)=0-30%) |
| CSc1ccc(-c2cc(CNCC34CC5CC(CC(C5)C3)C4)no2)cc1 [Example 40b, 1-((3r,5r,7r)-adamantan-1-yl)-N-((5-(4-(methylthio)phenyl)isoxazol-3-yl)methyl)methanamine] | – | A (key: (A)=31-95%; (B)=0-30%) |

| SMILES | S31N OOcyte Inhibition at 100 uM (%) | S31N OOcyte Inhibition at 100 uM (%) (pH 5.5) |
| --- | --- | --- |
| CC(C)(C)c1ccc(-c2ccc(CNC34CC5CC(CC(C5)C3)C4)s2)cc1 [Example 50b, N-((5-(4-(tert-Butyl)phenyl)thiophen-2-yl)methyl)adamantan-1-amine] | – | A (key: (A)=31-95%; (B)=0-30%) |
| CCCc1nc(CNC23CC4CC(CC(C4)C2)C3)no1 [Example 29b, N-((5-propyl-1,2,4-oxadiazol-3-yl)methyl)adamantan-1-amine] | – | A (key: (A)=31-95%; (B)=0-30%) |
| CSc1ccc(-c2cc(CNC34CC5CC(CC(C5)C3)C4)no2)cc1 [Example 37b, N-((5-(4-(methylthio)phenyl)isoxazol-3-yl)methyl)adamantan-1-amine] | – | A (key: (A)=31-95%; (B)=0-30%) |
| Brc1ccsc1CNC12CC3CC(CC(C3)C1)C2 [Example 47b, N-((3-Bromothiophen-2-yl)methyl)adamantan-1-amine] | – | B (key: (A)=31-95%; (B)=0-30%) |
| c1c(CNC23CC4CC(CC(C4)C2)C3)noc1C1CCCCC1 [Example 32b, N-((5-cyclohexylisoxazol-3-yl)methyl)adamantan-1-amine] | – | A (key: (A)=31-95%; (B)=0-30%) |
| c1cc(C2CC2)ccc1CNC12CC3CC(CC(C3)C1)C2 [Example 9a, N-(4-Cyclopropylbenzyl)adamantan-1-amine] | A (key: (A)=31-95%; (B)=0-30%) | – |
| CCc1nc(CNC23CC4CC(CC(C4)C2)C3)no1 [Example 165a] | A (key: (A)=31-95%; (B)=0-30%) | – |
| COc1ccc(-c2nc(CNC34CC5CC(CC(C5)C3)C4)no2)c(OC)c1 [Example 34b, N-((5-(2,4-dimethoxyphenyl)-1,2,4-oxadiazol-3-yl)methyl)adamantan-1-amine] | – | A (key: (A)=31-95%; (B)=0-30%) |
| CSc1ccccc1-c1ccc(CNC23CC4CC(CC(C4)C2)C3)nc1 [Example 67b, Adamantan-1-yl-[5-(2-methylsulfanyl-phenyl)-pyridin-2-ylmethyl]-amine] | – | A (key: (A)=31-95%; (B)=0-30%) |
| COc1ccc2nc(CNC34CC5CC(CC(C5)C3)C4)[nH]c2c1 [Example 79b, Adamantan-1-yl-(6-methoxy-1H-benzoimidazol-2-ylmethyl)-amine] | – | A (key: (A)=31-95%; (B)=0-30%) |
| c1csc(-c2ccc(CNC34CC5CC(CC(C5)C3)C4)o2)c1 [Example 138a, Adamantan-1-yl-(5-thiophen-2-yl-furan-2-ylmethyl)-amine] | A (key: (A)=31-95%; (B)=0-30%) | – |
| Cc1nc(CNC23CC4CC(CC(C4)C2)C3)no1 [Example 96a, N-((5-methyl-1,2,4-oxadiazol-3-yl)methyl)adamantan-1-amine] | A (key: (A)=31-95%; (B)=0-30%) | – |
| Oc1cc(-c2ccoc2)ccc1CNC12CC3CC(CC(C3)C1)C2 [Example 46a] | A (key: (A)=31-95%; (B)=0-30%) | – |
| Ic1ccc(CNC23CC4CC(CC(C4)C2)C3)s1 [Example 91a, N-((5-Iodothiophen-2-yl)methyl)adamantan-1-amine] | A (key: (A)=31-95%; (B)=0-30%) | – |
| c1csc(-c2noc(CNC34CC5CC(CC(C5)C3)C4)n2)c1 [Example 148a, N-((3-(thiophen-2-yl)-1,2,4-oxadiazol-5-yl)methyl)adamantan-1-amine] | A (key: (A)=31-95%; (B)=0-30%) | – |
| c1csc(-c2ccc(CNC34CC5CC(CC(C5)C3)C4)nn2)c1 [Example 71b, Adamantan-1-yl-(6-thiophen-2-yl-pyridazin-3-ylmethyl)-amine] | – | A (key: (A)=31-95%; (B)=0-30%) |
| COc1ccc(Cc2nc(CNC34CC5CC(CC(C5)C3)C4)no2)cc1OC [Example 28b, N-((5-(3,4-dimethoxybenzyl)-1,2,4-oxadiazol-3-yl)methyl)adamantan-1-amine] | – | A (key: (A)=31-95%; (B)=0-30%) |
| CC(C)(C)c1ccc(-c2noc(CNC34CC5CC(CC(C5)C3)C4)n2)cc1 [Example 124a, N-((3-(4-(tert-butyl)phenyl)-1,2,4-oxadiazol-5-yl)methyl)adamantan-1-amine] | B (key: (A)=31-95%; (B)=0-30%) | – |
| c1ccc(-c2ncc(CNC34CC5CC(CC(C5)C3)C4)cn2)nc1 [Example 64a, N-((2-(pyridin-2-yl)pyrimidin-5-yl)methyl)adamantan-1-amine] | B (key: (A)=31-95%; (B)=0-30%) | – |
| c1coc(-c2nc(CNC34CC5CC(CC(C5)C3)C4)no2)c1 [Example 160a, N-((5-(furan-2-yl)-1,2,4-oxadiazol-3-yl)methyl)adamantan-1-amine] | A (key: (A)=31-95%; (B)=0-30%) | – |
| CSc1ccccc1-c1cc(CNC23CC4CC(CC(C4)C2)C3)no1 [Example 42b, N-((5-(2-(methylthio)phenyl)isoxazol-3-yl)methyl)adamantan-1-amine] | – | A (key: (A)=31-95%; (B)=0-30%) |
| CN(C)c1ncc(CNC23CC4CC(CC(C4)C2)C3)cn1 [Example 59b, N-((2-dimethylaminopyrimidin-5-yl)methyl)adamantan-1-amine] | – | A (key: (A)=31-95%; (B)=0-30%) |
